Ki data for 16 compounds are collected here from patent US8598154B2 (Corcept Therapeutics, Inc., priority 2010, dated 2013).

The target of assay [1] is T1, Human Recombinant Glucocorticoid Receptor (Homo sapiens, UniProt P04150).
T1 construct: This GR was a full-length steroid hormone receptor likely to be associated with heat-shock and other endogenous proteins; host or cells: baculovirus-infected insect cells
T1 sequence (P04150 1-777): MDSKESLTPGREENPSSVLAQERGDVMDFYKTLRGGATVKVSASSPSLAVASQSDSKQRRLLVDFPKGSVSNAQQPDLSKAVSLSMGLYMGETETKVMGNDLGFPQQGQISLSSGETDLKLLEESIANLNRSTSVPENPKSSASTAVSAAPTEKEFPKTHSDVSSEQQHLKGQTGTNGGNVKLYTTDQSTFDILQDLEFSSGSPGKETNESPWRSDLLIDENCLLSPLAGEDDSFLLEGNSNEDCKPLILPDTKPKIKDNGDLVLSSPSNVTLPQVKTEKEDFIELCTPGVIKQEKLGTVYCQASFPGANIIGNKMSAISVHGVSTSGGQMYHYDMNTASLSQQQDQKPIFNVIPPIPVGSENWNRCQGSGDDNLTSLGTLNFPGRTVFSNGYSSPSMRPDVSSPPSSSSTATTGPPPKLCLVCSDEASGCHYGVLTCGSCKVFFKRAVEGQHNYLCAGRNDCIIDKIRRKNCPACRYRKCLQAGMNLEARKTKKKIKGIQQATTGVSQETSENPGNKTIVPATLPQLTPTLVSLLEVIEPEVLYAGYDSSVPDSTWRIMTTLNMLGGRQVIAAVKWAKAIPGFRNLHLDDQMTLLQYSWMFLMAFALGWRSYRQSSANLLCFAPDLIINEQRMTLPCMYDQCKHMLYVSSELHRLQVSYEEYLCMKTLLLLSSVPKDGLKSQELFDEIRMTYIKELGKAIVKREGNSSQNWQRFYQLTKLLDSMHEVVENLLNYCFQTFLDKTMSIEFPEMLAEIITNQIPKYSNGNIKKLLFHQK
The assay is described as follows: Glucocorticoid receptor binding displacement assay with 3H-dexamethasone. The note with it: displacement of 2.5 nM 3H-dexamethasone; Ki from IC50 by Cheng-Prusoff; read-out: GR Binding Ki. The protocol:
The source of the receptor was recombinant baculovirus-infected insect cells. This GR was a full-length steroid hormone receptor likely to be associated with heat-shock and other endogenous proteins.
For the Primary Screen, test compounds were tested at 1 μM in duplicate. These compounds were diluted from 10 mM stock in 100% DMSO. After dilution to 100 μM, 5 μl were added to 245 μl assay buffer to obtained 2 μM compound and 2% DMSO.
For the IC50 determinations, test compounds were tested at 6 concentrations in duplicate (concentration range depends on % inhibition binding that was obtained in the Primary Screen). Test compounds were diluted from 10 mM stock in 100% DMSO. The tested solutions were prepared at 2× final assay concentration in 2% DMSO/assay buffer.
All reagents and the assay plate were kept on ice during the addition of reagents. […] After the additions, the incubation mixture was mixed and incubated for 2.5 hrs at 4° C.
After 2.5 hrs incubation, unbound counts were removed with dextran coated charcoal (DCC) as follows: 25 μl of DCC solution (10% DCC in assay buffer) was added to all wells and mixed (total volume 225 μl). The plate was centrifuged at 4000 rpm for 10 minutes at 4° C. 75 μl of the supernatants (i.e.⅓ of total volume) was carefully pipetted into an optiplate. 200 μl of scintillation cocktail were added (Microscint-40, Packard Bioscience. B.V.). The plate was vigorously shaken for approx. 10 minutes and counted on Topcount.
The IC50 values were converted to Ki (the inhibition constant) using the Cheng-Prusoff equation. Test results are presented in Tablel.
Reagents: Assay buffer: 10 mM potassium phosphate buffer pH 7.6 containing 5 mM DTT, 10 mM sodium molybdate, 100 μM EDTA and 0.1% BSA.

Assay [2] has as its target T2, glucocorticoid receptors (GR) in SW1353/MMTV-5 cells (Homo sapiens, UniProt P04150).
T2 construct: contains endogenous glucocorticoid receptors; endogenous in cells; host or cells: SW1353/MMTV-5 (human chondrosarcoma, stably transfected with the pMAMneo-Luc reporter only)
T2 sequence (P04150 1-777): T1 sequence (P04150 1-777)
The assay is described as follows: GR functional assay using SW1353/MMTV-5 cells (MMTV-luciferase reporter). It is filed as cell-based. The protocol:
SW1353/MMTV-5 is an adherent human chondrosarcoma cell line that contains endogenous glucocorticoid receptors. It was transfected with a plasmid (pMAMneo-Luc) encoding firefly luciferase located behind a glucocorticoid-responsive element (GRE) derived from a viral promoter (long terminal repeat of mouse mammary tumor virus). A stable cell line SW1353/MMTV-5 was selected with geneticin, which was required to maintain this plasmid.
SW1353/MMTV-5 cells were distributed in 96-well plates and incubated in medium (without geneticin) for 24 hrs (in the absence of CO2).
A general note: Reporter assays use an easily measured gene product as a stand-in for the process of interest.

The structures appear in SMILES notation.

Turning to `COCCOC[C@]12Cc3cnn(-c4ccc(F)cc4)c3C=C1CCN(S(=O)(=O)c1ccc(N3CC[C@@H](F)C3)nc1)C2` [Example 33, (R)-1-(4-Fluorophenyl)-6-[6-((R)-3-fluoropyrrolidin-1-yl)-pyridine-3-sulfonyl]-4a-(2-methoxyethoxymethyl)-4,4a,5,6,7,8-hexahydro-1H-1,2,6-triaza-cyclopenta[b]naphthalene], the Ki (commonly the equilibrium dissociation constant of an inhibitor or competing ligand from its target) in assay [1] is 0.5 to 1 nM; in assay [2] it was under 10 nM.
The like results for `O=S(=O)(c1ccc(N2CC[C@@H](F)C2)nc1)N1CCC2=Cc3c(cnn3-c3ccc(F)cc3)C[C@]2(COCCO)C1` [Example 34, 2-{(R)-1-(4-Fluorophenyl)-6-[6-((R)-3-fluoropyrrolidin-1-yl)-pyridine-3-sulphonyl]-1,4,5,6,7,8-hexahydro-1,2,6-triaza-cyclopenta[b]naphthalene-4a-ylmethoxy}-ethanol] were, in that order, over 1 nM and over 50 nM.
As to `Cc1cc(COC[C@]23Cc4cnn(-c5ccc(F)cc5)c4C=C2CCN(S(=O)(=O)c2ccc(N4CC[C@@H](F)C4)nc2)C3)no1` [Example 35, (R)-1-(4-Fluorophenyl)-6-[6-((R)-3-fluoropyrrolidin-1-yl)-pyridine-3-sulfonyl]-4a-(5-methyl-isoxazol-3-ylmethoxymethyl)-4,4a,5,6,7,8-hexahydro-1H-1,2,6-triaza-cyclopenta[b]naphthalene], the Ki in assay [1] is over 1 nM; in assay [2] it was 10 to 50 nM.
With `COC[C@]12Cc3cnn(-c4ccc(F)cc4)c3C=C1CCN(S(=O)(=O)c1cncc(N3CC(O)C3)c1)C2` [Example 36, 1-{5-[(R)-1-(4-Fluorophenyl)-4a-methoxymethyl-1,4,4a,5,6,7,8-hexahydro-1,2,6-triaza-cyclopenta[b]naphthalene-6-sulfonyl]-pyridin-3-yl}-azetidin-3-ol], the inhibition constant (Ki) in assay [1] is 0.5 to 1 nM; in assay [2], over 50 nM.
The corresponding values for `COC[C@]12Cc3cnn(-c4ccc(F)cc4)c3C=C1CCN(S(=O)(=O)c1cncc(N3CC(F)C3)c1)C2` [Example 37, (R)-6-[5-(3-Fluoroazetidin-1-yl)-pyridine-3-sulfonyl]-1-(4-fluorophenyl)-4a-methoxymethyl-4,4a,5,6,7,8-hexahydro-1H-1,2,6-triaza-cyclopenta[b]naphthalene] are 0.5 to 1 nM and under 10 nM.
`COC[C@]12Cc3cnn(-c4ccc(F)cc4)c3C=C1CCN(S(=O)(=O)c1cncc(N3CC[C@@H](O)C3)c1)C2` [Example 38, (R)-1-{5-[(R)-1-(4-Fluorophenyl)-4a-methoxymethyl-1,4,4a,5,6,7,8-hexahydro-1,2,6-triaza-cyclopenta[b]naphthalene-6-sulfonyl]pyridine-3-yl}-pyrrolidine-3-ol]: the Ki in assay [1] lay within 0.5 to 1 nM; in assay [2], 10 to 50 nM.
The corresponding values for `COC[C@]12Cc3cnn(-c4ccc(F)cc4)c3C=C1CCN(S(=O)(=O)c1cncc(N3CC[C@H](O)C3)c1)C2` [Example 39, (S)-1-{5-[(R)-1-(4-Fluorophenyl)-4a-methoxymethyl-1,4,4a,5,6,7,8-hexahydro-1,2,6-triaza-cyclopenta[b]naphthalene-6-sulfonyl]pyridine-3-yl}-pyrrolidine-3-ol] are 0.5 to 1 nM and over 50 nM.
The like results for `COC[C@]12Cc3cnn(-c4ccc(F)cc4)c3C=C1CCN(S(=O)(=O)c1cncc(N3CC[C@@H](F)C3)c1)C2` [Example 40, (R)-1-(4-Fluorophenyl)-6-[5-((R)-3-fluoropyrrolidin-1-yl)-pyridine-3-sulfonyl]-4a-methoxymethyl-4,4a,5,6,7,8-hexahydro-1H-1,2,6-triaza-cyclopenta[b]naphthalene] were, in that order, over 1 nM and under 10 nM.
In the case of `COC[C@]12Cc3cnn(-c4ccc(F)cc4)c3C=C1CCN(S(=O)(=O)c1cncc(N3CC[C@H](F)C3)c1)C2` [Example 41, (R)-1-(4-Fluorophenyl)-6-[5-((S)-3-fluoropyrrolidin-1-yl)-pyridine-3-sulfonyl]-4a-methoxymethyl-4,4a,5,6,7,8-hexahydro-1H-1,2,6-triaza-cyclopenta[b]naphthalene], the Ki in assay [1] was 0.5 to 1 nM; in assay [2] it was under 10 nM.
Regarding `COC[C@]12Cc3cnn(-c4ccc(F)cc4)c3C=C1CCN(S(=O)(=O)c1ccnc(N3CCCC3)c1)C2` [Example 42, (R)-1-(4-Fluorophenyl)-4a-methoxymethyl-6-(2-pyrrolidin-1-yl-pyridine-4-sulfonyl)-4,4a,5,6,7,8-hexahydro-1H-1,2,6-triaza-cyclopenta[b]naphthalene], the results for the Ki in assay [1] and in assay [2] were over 1 nM and under 10 nM, respectively.
Take `COC[C@]12Cc3cnn(-c4ccc(F)cc4)c3C=C1CCN(S(=O)(=O)c1ccnc(N3CC[C@@H](O)C3)c1)C2` [Example 43, (R)-1-{4-[(R)-1-(4-Fluorophenyl)-4a-methoxymethyl-1,4,4a,5,6,7,8-hexahydro-1,2,6-triaza-cyclopenta[b]naphthalene-6-sulfonyl]-pyridin-2-yl}-pyrrolidin-3-ol]: the Ki in assay [1] is over 1 nM; in assay [2], over 50 nM.
For `COC[C@]12Cc3cnn(-c4ccc(F)cc4)c3C=C1CCN(S(=O)(=O)c1ccnc(N3CC[C@H](O)C3)c1)C2` [Example 44, (S)-1-{4-[(R)-1-(4-Fluorophenyl)-4a-methoxymethyl-1,4,4a,5,6,7,8-hexahydro-1,2,6-triaza-cyclopenta[b]naphthalene-6-sulfonyl]-pyridin-2-yl}-pyrrolidin-3-ol], the figures for the Ki in assay [1] and in assay [2] were over 1 nM and over 50 nM, respectively.
As for `CN(CCO)C[C@]12Cc3cnn(-c4ccc(F)cc4)c3C=C1CCN(S(=O)(=O)c1ccc(N3CCOCC3)nc1)C2` [Example 45, 2-{[(S)-1-(4-Fluorophenyl)-6-[6-morpholin-4-yl-pyridine-3-sulfonyl)-1,4,5,6,7,8-hexahydro-1,2,6-triaza-cyclopenta[b]naphthalene-4a-ylmethyl]-methyl-amino}-ethanol], the Ki was over 1 nM in assay [1] and 10 to 50 nM in assay [2].
The corresponding values for `O=S(=O)(c1ccc(N2CC[C@@H](F)C2)nc1)N1CCC2=Cc3c(cnn3-c3ccc(F)cc3)C[C@]2(CN2CC[C@H](O)C2)C1` [Example 47, (S)-1-{(S)-1-(4-Fluorophenyl)-6-[6-((R)-3-fluoro-pyrrolidin-1-yl)-pyridine-3-sulfonyl]-1,4,5,6,7,8-hexahydro-1,2,6-triaza-cyclopenta[b]naphthalene-4a-ylmethyl}-pyrrolidin-3-ol] are over 1 nM and over 50 nM.
With `CCOC(=O)[C@]12Cc3cnn(-c4ccc(F)cc4)c3C=C1CCN(S(=O)(=O)c1ccc(N3CCOCC3)nc1)C2` [Example 48, (R)-1-(4-Fluorophenyl)-6-(6-morpholin-4-yl-pyridine-3-sulfonyl]-1,4,5,6,7,8-hexahydro-1,2,6-triaza-cyclopenta[b]naphthalene-4a-carboxylic acid ethyl ester], the Ki in assay [1] was 0.5 to 1 nM; in assay [2], 10 to 50 nM.
As to `CC(C)OC(=O)[C@]12Cc3cnn(-c4ccc(F)cc4)c3C=C1CCN(S(=O)(=O)c1ccc(N3CCOCC3)nc1)C2` [Example 49, (R)-1-(4-Fluorophenyl)-6-(6-morpholin-4-yl-pyridine-3-sulfonyl]-1,4,5,6,7,8-hexahydro-1,2,6-triaza-cyclopenta[b]naphthalene-4a-carboxylic acid isopropyl ester], the Ki is under 0.5 nM in assay [1] and 10 to 50 nM in assay [2].
